Reference: patent publication US20250136559A1, “SMO MODULATOR COMPOUNDS” (OMASS THERAPEUTICS LIMITED, priority 2022, published 2025)

Assays:
Type in all cases: cell-based
[1] = biological target: T1, mouse SMO^WT (Mus musculus, UniProt P56726); assay: Mouse assay: Gli1 qPCR in MEF cells stably expressing mouse SMO WT; conditions: mSHh-treated, 24 hours; for IC50: Gli1 inhibition by qPCR, read-out: Mouse WT pIC50 (converted); for Mouse WT % Inh: percentage Gli1 inhibition
T1 construct: expressed in transfected cells
T1 sequence (P56726 33-793): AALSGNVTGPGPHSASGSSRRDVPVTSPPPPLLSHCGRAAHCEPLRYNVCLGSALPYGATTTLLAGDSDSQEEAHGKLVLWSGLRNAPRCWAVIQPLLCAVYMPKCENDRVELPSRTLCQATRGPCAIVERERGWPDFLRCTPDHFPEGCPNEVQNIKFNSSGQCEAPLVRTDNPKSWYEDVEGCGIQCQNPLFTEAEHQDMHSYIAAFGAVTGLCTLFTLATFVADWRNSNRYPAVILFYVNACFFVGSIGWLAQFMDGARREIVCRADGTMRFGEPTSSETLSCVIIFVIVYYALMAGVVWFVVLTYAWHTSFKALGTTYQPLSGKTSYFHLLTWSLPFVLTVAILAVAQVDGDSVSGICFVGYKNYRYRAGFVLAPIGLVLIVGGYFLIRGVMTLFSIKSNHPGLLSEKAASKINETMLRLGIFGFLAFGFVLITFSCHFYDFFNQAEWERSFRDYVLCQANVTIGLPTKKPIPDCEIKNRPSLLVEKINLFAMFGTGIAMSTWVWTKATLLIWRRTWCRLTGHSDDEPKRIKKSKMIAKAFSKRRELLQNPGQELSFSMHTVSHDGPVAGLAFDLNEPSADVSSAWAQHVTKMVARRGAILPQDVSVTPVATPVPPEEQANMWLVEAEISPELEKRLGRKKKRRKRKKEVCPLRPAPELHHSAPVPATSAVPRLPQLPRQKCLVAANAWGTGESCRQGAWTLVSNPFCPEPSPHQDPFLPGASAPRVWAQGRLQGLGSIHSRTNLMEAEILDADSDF
Method: (§1) Cell culture. All materials were purchased from Sigma-Aldrich, unless otherwise stated.
(§2) Compound treatment. […] After 1 hour incubation, cells were treated with assay medium containing mSHh prepared at 2.5× of final assay concentrations specified in the text and incubated for a further 24 hours at 37′C in a humidified 95% air/5% CO2 atmosphere prior to qPCR analysis.
(§3) Cell lysis and one-step qPCR. The Cells-to-CT™ 1-Step TaqMan® Kit was used in conjunction with TaqMan primer-probe assays for the detection of Gli1 (FAM, Mm00494654_m1) and Gusb (VIC, Mm01197698_m1) genes (all purchased from Life Technologies). Following 24 hours cell treatment, spent medium was removed and cells were washed with PBS before the application of lysis and stop solution as per manufacturer's instructions. The qPCR reactions were run in a 384-well PCR plate using master mix prepared according to manufacturer's instructions and cell lysate samples from treatment wells. Real-time PCR amplification was detected using the Bio-Rad CFX384 Touch PCR system. Four experimental replicates (two cell replicates and two qPCR replicates) were performed for each compound concentration tested. Real-time data were analysed using the CFX Maestro software (Bio-Rad) and obtained expression values were converted to percentage Gli1 inhibition by normalising to the average Gli1 expression of mSHh-treated control samples.

[2] = biological target: T2, mouse SMO^W535L (Mus musculus, UniProt P56726, W539L); assay: Mouse assay: Gli1 qPCR in MEF cells stably expressing mouse SMO W535L; conditions: mSHh-treated, 24 hours; for IC50: Gli1 inhibition by qPCR, read-out: Mouse W535L pIC50 (converted); for Mouse W535L % Inh: percentage Gli1 inhibition
T2 construct: expressed in transfected cells
T2 sequence (P56726 33-793 W539L): as the sequence (P56726 33-793) above, with W507L counted along it
Method: as §1, §2, §3

[3] = biological target: T3, mouse SMO^D473H (Mus musculus, UniProt P56726, D477H); assay: Mouse assay: Gli1 qPCR in MEF cells stably expressing mouse SMO D473H; conditions: mSHh-treated, 24 hours; for IC50: Gli1 inhibition by qPCR, read-out: Mouse D473H pIC50 (converted); for Mouse D473H % Inh: percentage Gli1 inhibition
T3 construct: expressed in transfected cells
T3 sequence (P56726 33-793 D477H): as the sequence (P56726 33-793) above, with D445H counted along it
Method: as §1, §2, §3

SMILES	IC50 [1] [nM]	Mouse WT % Inh [1] [%]	IC50 [2] [nM]	Mouse W535L % Inh [2] [%]	IC50 [3] [nM]	Mouse D473H % Inh [3] [%]
O=C(Nc1ccc(-c2nc(-c3ccc(C(F)(F)F)s3)n[nH]2)cc1)c1cccc(CN2CCS(=O)(=O)CC2)c1 [Example 3-16, 3-[(1,1-Dioxo-1,4-thiazinan-4-yl)methyl]-N-[4-[3-[5-(trifluoromethyl)thiophen-2-yl]-1H-1,2,4-triazol-5-yl]phenyl]benzamide]	100	99.4	794	58.5	794	93.9
Cn1nc(-c2ccc(NC(=O)c3cccc(CN4CCS(=O)(=O)CC4)c3)nc2)cc1C1CC1 [Example 5-5, N-[5-(5-cyclopropyl-1-methylpyrazol-3-yl)pyridin-2-yl]-3-[(1,1-dioxo-1,4-thiazinan-4-yl)methyl]benzamide]	31.6	97.7	631	61.1	100	93.2
O=C(Nc1ccc(-c2cc(C3CC3)n[nH]2)cc1)c1ccc(Cl)c(CN2CCS(=O)(=O)CC2)c1 [Example 4-20, 4-chloro-N-[4-(5-cyclopropyl-1H-pyrazol-3-yl)phenyl]-3-[(1,1-dioxo-1,4-thiazinan-4-yl)methyl]benzamide]	2.51	99.1	10	51.6	31.6	98.4
Cc1oc(-c2ccc(NC(=O)c3ccc(Cl)c(CN4CCS(=O)(=O)CC4)c3)cc2)nc1C1CC1 [Example 4-4, 4-Chloro-N-[4-(4-cyclopropyl-5-methyl-1,3-oxazol-2-yl)phenyl]-3-[(1,1-dioxo-1,4-thiazinan-4-yl)methyl]benzamide]	0.2	99.5	12.6	79.0	3.16	98.5
O=C(Nc1ccc(-c2nc(Cc3ccccc3F)n[nH]2)cc1)c1cccc(CN2CCS(=O)(=O)CC2)c1 [Example 3-19, 3-[(1,1-Dioxo-1,4-thiazinan-4-yl)methy]-N-[4-[3-[(2-fluorophenyl)methyl]-1H-1,2,4-triazol-5-yl]phenyl]benzamide]	25.1	99.1	39.8	64.3	316	96.9
O=C(Nc1ccc(-c2nc(Cc3ccc(F)cc3)n[nH]2)cc1)c1cccc(CN2CCS(=O)(=O)CC2)c1 [Example 3-21, 3-[(1,1-Dioxo-1,4-thiazinan-4-yl)methy]-N-[4-[3-[(4-fluorophenyl)methyl]-1H-1,2,4-triazol-5-yl]phenyl]benzamide]	100	97.5	501	64.1	794	82.3
O=C(Nc1ccc(-c2nc(Cc3cc(Cl)ccc3Cl)n[nH]2)cc1)c1cccc(CN2CCS(=O)(=O)CC2)c1 [Example 3-26, N-[4-[3-[(2,5-Dichlorophenyl)methyl]-1H-1,2,4-triazol-5-yl]phenyl]-3-[(1,1-dioxo-1,4-thiazinan-4-yl)methyl]benzamide]	15.8	98.3	251	64.8	501	87.1
O=C(Nc1ccc(-c2cc(C3CC3)[nH]n2)nc1)c1ccc(Cl)c(CN2CCS(=O)(=O)CC2)c1 [Example 5-3, 4-Chloro-N-[6-(5-cyclopropyl-1H-pyrazol-3-yl)pyridin-3-yl]-3-[(1,1-dioxo-1,4-thiazinan-4-yl)methyl]benzamide]	63.1	98.6	–	–	–	–
O=C(Nc1ccc(-c2nc(Cc3cccc(F)c3)n[nH]2)cc1)c1cccc(CN2CCS(=O)(=O)CC2)c1 [Example 3-20, 3-[(1,1-Dioxo-1,4-thiazinan-4-yl)methy]-N-[4-[3-[(3-fluorophenyl)methyl]-1H-1,2,4-triazol-5-yl]phenyl]benzamide]	15.8	99.0	25.1	66.1	251	96.8
O=C(Nc1ccc(-c2cc(Cc3ccccc3)n[nH]2)cc1)c1cccc(CN2CCS(=O)(=O)CC2)c1 [Example 4-21, N-[4-(3-Benzyl-1H-pyrazol-5-yl)phenyl]-3-[(1,1-dioxo-1,4-thiazinan-4-yl)methyl]benzamide]	6.31	99.3	39.8	76.6	63.1	99.4
O=C(Nc1ccc(-c2nc(C3CCCN(Cc4ccccc4)C3)n[nH]2)cc1)c1cccc(CN2CCS(=O)(=O)CC2)c1 (stereo not shown) [Example 3-9, N-[4-[3-(1-Benzylpiperidin-3-yl)-1H-1,2,4-triazol-5-yl]phenyl]-3-[(1,1-dioxo-1,4-thiazinan-4-yl)methyl]benzamide]	31.6	95.1	63.1	63.2	316	93.8
O=C(Nc1ccc(-c2nc(Cc3ccccc3)n[nH]2)cc1)c1cccc(CN2CCS(=O)(=O)CC2)c1 [Example 3-17, N-[4-(3-Benzyl-1H-1,2,4-triazol-5-yl)phenyl]-3-[(1,1-dioxo-1,4-thiazinan-4-yl)methyl]benzamide]	6.31	99.4	39.8	54.3	100	99.0
O=C(Nc1ccc(-c2nc(-c3ccccn3)n[nH]2)cc1)c1cccc(CN2CCS(=O)(=O)CC2)c1 [Example 3-15, 3-[(1,1-Dioxo-1,4-thiazinan-4-yl)methyl]-N-[4-(3-pyridin-2-yl-1H-1,2,4-triazol-5-yl)phenyl]benzamide]	79.4	98.9	398	53.4	1000	97.0
O=C(Nc1ccc(-c2nc(CCc3ccccc3)n[nH]2)cc1)c1cccc(CN2CCS(=O)(=O)CC2)c1 [Example 3-31, 3-[(1,1-Dioxo-1,4-thiazinan-4-yl)methyl]-N-[4-[3-(2-phenylethyl)-1H-1,2,4-triazol-5-yl]phenyl]benzamide]	31.6	98.6	79.4	64.1	251	97.2
O=C(Nc1ccc(-c2nc(C3CC3)n[nH]2)cc1)c1ccc(F)c(CN2CCS(=O)(=O)CC2)c1 [Example 2-3, N-[4-(5-Cyclopropyl-1H-1,2,4-triazol-3-yl)phenyl]-3-[(1,1-dioxo-1,4-thiazinan-4-yl)methyl]-4-fluorobenzamide]	20	94.4	79.4	76.5	158	93.9
Cc1oc(-c2ccc(NC(=O)c3ccc(Cl)c(CN4CCS(=O)(=O)CC4)c3)cn2)nc1Br [Example 5-1, N-[6-(4-bromo-5-methyl-1,3-oxazol-2-yl)pyridin-3-yl]-4-chloro-3-[(1,1-dioxo-1,4-thiazinan-4-yl)methyl]benzamide]	20	99.3	–	–	–	–
